Source: BigSolDB 2.1

Cc1ccc(CO)cc1
solubility (mole fraction)
Conditions | 278.15 K | 283.15 K | 288.15 K | 293.15 K | 298.15 K | 303.15 K | 308.15 K | 313.15 K
in 1,2-dichloroethane | 0.166 | 0.214 | 0.28 | 0.343 | 0.418 | 0.506 | 0.585 | 0.685
in acetone | 0.226 | 0.272 | 0.321 | 0.384 | 0.431 | 0.497 | 0.568 | 0.642
in acetonitrile | 0.162 | 0.214 | 0.287 | 0.361 | 0.454 | 0.548 | 0.638 | 0.735
in dichloromethane | 0.4 | 0.429 | 0.466 | 0.502 | 0.537 | 0.588 | 0.646 | 0.729
in ethanol | 0.236 | 0.276 | 0.327 | 0.379 | 0.44 | 0.508 | 0.581 | 0.662
in ethyl acetate | 0.215 | 0.259 | 0.308 | 0.369 | 0.433 | 0.511 | 0.587 | 0.671
in ethyl formate | 0.152 | 0.191 | 0.242 | 0.303 | 0.372 | 0.449 | 0.537 | 0.62
in isobutanol | 0.231 | 0.275 | 0.321 | 0.373 | 0.446 | 0.513 | 0.594 | 0.667
in isopropanol | 0.248 | 0.283 | 0.33 | 0.386 | 0.448 | 0.527 | 0.597 | 0.674
in n-butanol | 0.252 | 0.287 | 0.334 | 0.385 | 0.45 | 0.51 | 0.584 | 0.698
in n-propanol | 0.253 | 0.293 | 0.34 | 0.398 | 0.454 | 0.518 | 0.595 | 0.674
